Source: publication PMC11748363, “Antimicrobial and Antiproliferative Properties of 2‐Phenyl‐N‐(Pyridin‐2‐yl)acetamides” (Chemical Biology & Drug Design, 2025)
In brackets after ≈: the same amount, converted by molar mass. Read-outs that look alike come from different tables or passages of the source.

Key:
[1] = tested on: Mycobacterium tuberculosis H37Ra; test: Antimycobacterial microdilution broth MIC (resazurin), Mtb H37Ra; format: cell-based; settings: for MIC: Mycobacterium tuberculosis, H37RA
[2] = tested on: Mycolicibacterium smegmatis DSM 43465; test: Antimycobacterial microdilution broth MIC (resazurin), M. smegmatis; format: cell-based; settings: DSM43465, read-out: MIC M. smegmatis
[3] = tested on: Mycolicibacterium aurum DSM 43999; test: Antimycobacterial microdilution broth MIC (resazurin), M. aurum; format: cell-based; settings: DSM43999, read-out: MIC M. aurum
HepG2 cell line = test: Cytotoxicity CellTiter 96, HepG2; format: cell-based, human; settings: Homo sapiens, HepG2, 24 h, 24 h incubation; ^c compound precipitated in the testing medium; ^d over the limit of tested concentrations
Method: The cytotoxicity of final compounds was determined in human hepatocellular carcinoma cell line HepG2.
Cytotoxicity determination
Human hepatocellular liver carcinoma cell line HepG2 purchased from Health Protection Agency Culture Collections (ECACC, Salisbury, UK) was cultured in MEM (Minimum Essentials Eagle Medium, Sigma–Aldrich) supplemented with 10% fetal bovine serum (PAA Laboratories, Pasching, Austria), 1% L-glutamine solution (Sigma–Aldrich) and non-essential amino acid solution (Sigma–Aldrich) in a humidified atmosphere containing 5% CO2 at 37 °C. For subculturing, the cells were harvested after trypsin/EDTA (Sigma–Aldrich) treatment at 37 °C. To evaluate cytotoxicity, the cells treated with the tested substances were used as experimental groups whereas untreated HepG2 cells served as controls. The cells were seeded in density 10,000 cells per well in a 96 well plate. The next day the cells were treated with each of the tested substances dissolved in DMSO. The tested substances were
in triplicates according to their solubility. Simultaneously, the controls representing 100% cell viability, 0% cell viability (the cells treated with 10% DMSO), no cell control and vehiculum controls were also
the reagent from the kit CellTiter 96 AQueous One Solution Cell Proliferation Assay (CellTiter 96; PROMEGA, Fitchburg, USA) was added. After 2h incubation at 37 °C, absorbance of samples was recorded at 490 nm (TECAN, Infinita M200, Austria). A standard toxicological parameter IC50 was calculated by nonlinear regression from a semilogarithmic plot of incubation concentration versus percentage of absorbance relative to untre ated controls using GraphPad Prism 8 software.

[4] = tested on: Staphylococcus aureus CCM 4223, ATCC 29213; test: Antibacterial microdilution broth MIC, SA; format: cell-based; settings: Staphylococcus aureus
[5] = tested on: Staphylococcus aureus subsp. aureus CCM 4750, ATCC 43300 (MRSA); test: Antibacterial microdilution broth MIC, MRSA; format: cell-based; settings: Staphylococcus aureus
[6] = tested on: Staphylococcus epidermidis CCM 4418, ATCC 12228; test: Antibacterial microdilution broth MIC, SE; format: cell-based
[7] = tested on: Enterococcus faecalis CCM 4224, ATCC 29212; test: Antibacterial microdilution broth MIC, EF; format: cell-based
[8] = tested on: Escherichia coli CCM 3954, ATCC 25922; test: Antibacterial microdilution broth MIC, EC; format: cell-based
[9] = tested on: Acinetobacter baumannii DSM 30007, ATCC 19606; test: Antibacterial microdilution broth MIC, ACI; format: cell-based
[10] = tested on: Pseudomonas aeruginosa CCM 3955, ATCC 27853; test: Antibacterial microdilution broth MIC, PA; format: cell-based
[11] = tested on: Candida albicans CCM 8320, ATCC 24433; test: Antifungal microdilution broth MIC, CA
[12] = tested on: Candida krusei CCM 8271, ATCC 6258; test: Antifungal microdilution broth MIC, CK; settings: Pichia kudriavzevii
[13] = tested on: Candida parapsilosis CCM 8260, ATCC 22019; test: Antifungal microdilution broth MIC, CP; settings: Lodderomyces parapsilosis
[14] = tested on: Candida tropicalis CCM 8264, ATCC 750; test: Antifungal microdilution broth MIC, CT
[15] = tested on: Aspergillus fumigatus ATCC 204305; test: Antifungal microdilution broth MIC, AF
[16] = tested on: Lichtheimia corymbifera CCM 8077; test: Antifungal microdilution broth MIC, LC
[17] = tested on: Trichophyton interdigitale CCM 8377, ATCC 9533; test: Antifungal microdilution broth MIC, TI; settings: Trichophyton interdigitale
[18] = tested on: Aspergillus flavus CCM 8363; test: Antifungal microdilution broth MIC, AFla
[19] = tested on: Klebsiella pneumoniae CCM 4415, ATCC 10031; test: Antibacterial microdilution broth MIC, KP
[20] = Calculated from MIC (μg/mL), read-out: MIC Mtb H37Ra
[21] = ATCC204305, 24 h, read-out: MIC AF 24h
[22] = ATCC204305, 48 h, read-out: MIC AF 48h
[23] = CCM8077, 24 h, read-out: MIC LC 24h
[24] = CCM8077, 48 h, read-out: MIC LC 48h
[25] = CCM8363, 24 h, read-out: MIC AFla 24h
[26] = CCM8363, 48 h, read-out: MIC AFla 48h

O=C(Cc1cccc(Cl)c1)Nc1ccccn1 [Compound 16, 2-(3-chlorophenyl)-N-(pyridin-2-yl)acetamide]
MIC [1, 20]: 253 µM
MIC ([1]; read-out: MIC Mtb H37Ra): 62.5 µg/mL
MIC [2]: > 500 µg/mL
MIC [3]: 250 µg/mL (≈ 1010 µM)
IC50 (HepG2 cell line): > 250 µM
MIC ([4]; 24 h, read-out: MIC SA 24h): 500 µM (≈ 123 µg/mL)
MIC ([4]; 48 h, read-out: MIC SA 48h): 500 µM (≈ 123 µg/mL)
MIC ([5]; 24 h, read-out: MIC MRSA 24h): > 500 µM
MIC ([5]; 48 h, read-out: MIC MRSA 48h): > 500 µM
MIC ([6]; 24 h, read-out: MIC SE 24h): 125 µM (≈ 30.8 µg/mL)
MIC ([6]; 48 h, read-out: MIC SE 48h): 250 µM (≈ 61.7 µg/mL)
MIC ([7]; 24 h, read-out: MIC EF 24h): > 500 µM
MIC ([7]; 48 h, read-out: MIC EF 48h): > 500 µM
MIC ([8]; 24 h, read-out: MIC EC 24h): > 500 µM
MIC ([8]; 48 h, read-out: MIC EC 48h): > 500 µM
MIC ([9]; 24 h, read-out: MIC ACI 24h): > 500 µM
MIC ([9]; 48 h, read-out: MIC ACI 48h): > 500 µM
MIC ([10]; 24 h, read-out: MIC PA 24h): > 500 µM
MIC ([10]; 48 h, read-out: MIC PA 48h): > 500 µM
MIC ([11]; 24 h, read-out: MIC CA 24h): > 500 µM
MIC ([11]; 48 h, read-out: MIC CA 48h): > 500 µM
MIC ([12]; 24 h, read-out: MIC CK 24h): > 500 µM
MIC ([12]; 48 h, read-out: MIC CK 48h): > 500 µM
MIC ([13]; 24 h, read-out: MIC CP 24h): > 500 µM
MIC ([13]; 48 h, read-out: MIC CP 48h): > 500 µM
MIC ([14]; 24 h, read-out: MIC CT 24h): > 500 µM
MIC ([14]; 48 h, read-out: MIC CT 48h): > 500 µM
MIC [15, 21]: > 500 µM
MIC [15, 22]: > 500 µM
MIC [16, 23]: > 500 µM
MIC [16, 24]: > 500 µM
MIC ([17]; 72 h, read-out: MIC TI 72h): 500 µM (≈ 123 µg/mL)
MIC ([17]; 120 h, read-out: MIC TI 120h): 500 µM (≈ 123 µg/mL)
MIC [18, 25]: > 500 µM
MIC [18, 26]: > 500 µM
MIC KP 24h [19]: > 500 µM
MIC KP 48h [19]: > 500 µM

O=C(Cc1ccc(F)cc1)Nc1ccc(Cl)cn1 [Compound 32]
MIC ([1]; read-out: MIC Mtb H37Ra (μM)): 59 µM
MIC ([1]; read-out: MIC Mtb H37Ra (μg/mL)): 15.6 µg/mL
MIC [2]: 62.5 µg/mL (≈ 236 µM)
MIC [3]: 500 µg/mL (≈ 1890 µM)
IC50 (HepG2 cell line): > 250 µM
MIC ([4]; 24 h, read-out: MIC SA 24h): > 500 µM
MIC ([4]; 48 h, read-out: MIC SA 48h): > 500 µM
MIC ([5]; 24 h, read-out: MIC MRSA 24h): > 500 µM
MIC ([5]; 48 h, read-out: MIC MRSA 48h): > 500 µM
MIC ([6]; 24 h, read-out: MIC SE 24h): 125 µM (≈ 33.1 µg/mL)
MIC ([6]; 48 h, read-out: MIC SE 48h): 125 µM (≈ 33.1 µg/mL)
MIC ([7]; 24 h, read-out: MIC EF 24h): > 500 µM
MIC ([7]; 48 h, read-out: MIC EF 48h): > 500 µM
MIC ([8]; 24 h, read-out: MIC EC 24h): > 500 µM
MIC ([8]; 48 h, read-out: MIC EC 48h): > 500 µM
MIC ([9]; 24 h, read-out: MIC ACI 24h): > 500 µM
MIC ([9]; 48 h, read-out: MIC ACI 48h): > 500 µM
MIC ([10]; 24 h, read-out: MIC PA 24h): > 500 µM
MIC ([10]; 48 h, read-out: MIC PA 48h): > 500 µM
MIC ([11]; 24 h, read-out: MIC CA 24h): > 500 µM
MIC ([11]; 48 h, read-out: MIC CA 48h): > 500 µM
MIC ([12]; 24 h, read-out: MIC CK 24h): > 500 µM
MIC ([12]; 48 h, read-out: MIC CK 48h): > 500 µM
MIC ([13]; 24 h, read-out: MIC CP 24h): > 500 µM
MIC ([13]; 48 h, read-out: MIC CP 48h): > 500 µM
MIC ([14]; 24 h, read-out: MIC CT 24h): > 500 µM
MIC ([14]; 48 h, read-out: MIC CT 48h): > 500 µM
MIC [15, 21]: > 500 µM
MIC [15, 22]: > 500 µM
MIC [16, 23]: > 500 µM
MIC [16, 24]: > 500 µM
MIC ([17]; 72 h, read-out: MIC TI 72h): > 500 µM
MIC ([17]; 120 h, read-out: MIC TI 120h): > 500 µM
MIC [18, 25]: > 500 µM
MIC [18, 26]: > 500 µM
MIC KP 24h [19]: > 500 µM
MIC KP 48h [19]: > 500 µM

O=C(Cc1ccccc1)Nc1ccc(Cl)cn1 [Compound 2]
MIC [1, 20]: 63.3 µM
MIC ([1]; read-out: MIC Mtb H37Ra): 15.6 µg/mL
SI (selectivity index) ([1]; SI = HepG2 IC50 (μM)/MIC MtbH37Ra (μM), calculated for compounds with MIC ≤ 31.25 μg/mL): > 1.6
MIC [2]: 500 µg/mL (≈ 2030 µM)
MIC [3]: 500 µg/mL (≈ 2030 µM)
IC50 (HepG2 cell line): > 100 µM
MIC ([4]; 24 h, read-out: MIC SA 24h): > 500 µM
MIC ([4]; 48 h, read-out: MIC SA 48h): > 500 µM
MIC ([5]; 24 h, read-out: MIC MRSA 24h): > 500 µM
MIC ([5]; 48 h, read-out: MIC MRSA 48h): > 500 µM
MIC ([6]; 24 h, read-out: MIC SE 24h): > 500 µM
MIC ([6]; 48 h, read-out: MIC SE 48h): > 500 µM
MIC ([7]; 24 h, read-out: MIC EF 24h): > 500 µM
MIC ([7]; 48 h, read-out: MIC EF 48h): > 500 µM
MIC ([8]; 24 h, read-out: MIC EC 24h): > 500 µM
MIC ([8]; 48 h, read-out: MIC EC 48h): > 500 µM
MIC ([9]; 24 h, read-out: MIC ACI 24h): > 500 µM
MIC ([9]; 48 h, read-out: MIC ACI 48h): > 500 µM
MIC ([10]; 24 h, read-out: MIC PA 24h): > 500 µM
MIC ([10]; 48 h, read-out: MIC PA 48h): > 500 µM
MIC ([11]; 24 h, read-out: MIC CA 24h): > 500 µM
MIC ([11]; 48 h, read-out: MIC CA 48h): > 500 µM
MIC ([12]; 24 h, read-out: MIC CK 24h): > 500 µM
MIC ([12]; 48 h, read-out: MIC CK 48h): > 500 µM
MIC ([13]; 24 h, read-out: MIC CP 24h): > 500 µM
MIC ([13]; 48 h, read-out: MIC CP 48h): > 500 µM
MIC ([14]; 24 h, read-out: MIC CT 24h): > 500 µM
MIC ([14]; 48 h, read-out: MIC CT 48h): > 500 µM
MIC [15, 21]: > 500 µM
MIC [15, 22]: > 500 µM
MIC [16, 23]: > 500 µM
MIC [16, 24]: > 500 µM
MIC ([17]; 72 h, read-out: MIC TI 72h): > 500 µM
MIC ([17]; 120 h, read-out: MIC TI 120h): > 500 µM
MIC [18, 25]: > 500 µM
MIC [18, 26]: > 500 µM
MIC KP 24h [19]: > 500 µM
MIC KP 48h [19]: > 500 µM
